Data taken from ChEMBL document CHEMBL1150827, “Pseudodestruxins A and B: new cyclic depsipeptides from the coprophilous fungus Nigrosabulum globosum” (2001).
Active and inactive are the calls of the source. The calls are words filed in the database; no cut-off is given here. Non-standard residues stand in square brackets, D forms with d. Residues, ends and D or L forms follow the SMILES beside them. NMeI = CC[C@H](C)[C@H](NC)C(=O)O; Hica(2S) = CC(C)C[C@H](O)C(=O)O; NMeL = CN[C@@H](CC(C)C)C(=O)O; NMeV = CN[C@H](C(=O)O)C(C)C; βAla = NCCC(=O)O

Tests used:
[1] = tested on: Bacillus subtilis; assay: Antibacterial activity against Bacillus subtilis ATCC 6051 at 200 ug/disk by standard disk assay; format: functional; conditions: read-out: IZ
[2] = tested on: Staphylococcus aureus; assay: Antibacterial activity against Staphylococcus aureus ATCC 29213 at 200 ug/disk by standard disk assay; format: functional; conditions: read-out: IZ
[3] = tested on: Candida albicans; assay: Antifungal activity against Candida albicans ATCC 90029 at 200 ug/disk by standard disk assay; format: functional; conditions: read-out: IZ
[4] = tested on: Sordaria fimicola; assay: Antifungal activity against Sordaria fimicola NRRL 6459 assessed as inhibition of radial growth at 200 ug/disk by standard disk assay; format: functional
[5] = tested on: Ascobolus; assay: Antifungal activity against Ascobolus furfuraceus NRRL 6460 assessed as inhibition of radial growth at 200 ug/disk by standard disk assay; format: functional
[6] = tested on: Helicoverpa zea; assay: Antiinsectan activity against Helicoverpa zea larvae at 100 ppm dietary level by dietary assay; format: functional, organism-based
[7] = tested on: Sordaria fimicola; assay: Antifungal activity against Sordaria fimicola NRRL 6459 at 200 ug/disk by standard disk assay; format: functional, organism-based
[8] = tested on: Ascobolus; assay: Antifungal activity against Ascobolus furfuraceus NRRL 6460 at 200 ug/disk by standard disk assay; format: functional, organism-based

Row | Compound | zone of inhibition at 200 µg/disc [1] [mm] | zone of inhibition at 200 µg/disc [2] [mm] | zone of inhibition at 200 µg/disc [3] [mm] | inhibition at 200 µg/disc [4] [%] | inhibition at 200 µg/disc [5] [%] | Activity [6] | inhibition zone (IZ) [7] | inhibition zone (IZ) [8]
1 | CC(/C=C/[C@@]1(C)[C@H](C)CCC(=O)[C@@H]1C)=C\Cc1c(O)c(Cl)c(C)c(C=O)c1O [ASCOCHLORIN] | 12 | 11 | 24 | 62 | 33 |  |  | 
2 | CC[C@H](C)[C@H]1C(=O)N(C)[C@@H](CC(C)C)C(=O)NCCC(=O)O[C@@H](CC(C)C)C(=O)N2CCC[C@H]2C(=O)N[C@@H](Cc2ccccc2)C(=O)N1C [PSEUDODESTRUXIN A] (cyclo(F[NMeI][NMeL][βAla][Hica(2S)]P)) | 8 |  |  |  |  | inactive | inactive | inactive
3 | CC(C)C[C@@H]1OC(=O)CCNC(=O)[C@H](CC(C)C)N(C)C(=O)[C@H](C(C)C)N(C)C(=O)[C@H](Cc2ccccc2)NC(=O)[C@@H]2CCCN2C1=O [PSEUDODESTRUXIN B] (cyclo(F[NMeV][NMeL][βAla][Hica(2S)]P)) | 8 |  |  |  |  |  | inactive | inactive
